The values below come from US5401648A, “Peptides having peptidyl transferase inhibiting activity and methods of use thereof” (University of Maryland College Park, priority 1993, dated 1995).

For test [1], the system named is peptidyl transferase activity of the 50S subunits. The test can be described thus: Fragment reaction peptidyl transferase assay with dissociated 50S subunits. The class given is biochemical, B. subtilis BR151. On the procedure: (§1) The fragment reaction was used to assay peptidyl transferase activity. Reaction mixes consisted of 60 mM Tris-HCl (pH 7.4), 400 mM KCl, 20 mM magnesium sulfate, and 1 mM neutralized puromycin in 50 μl, to which was added 25 μl absolute ethanol. Unless specifically noted, 70S ribosomes purified from B. subtilis BR151 as described in Spedding^1/ were added to 0.55 uM ^35 S-labeled N-formylmethionine, charged to tRNA and digested with endonuclease T1 as described by Marcker^2/, was added to each reaction at 1×10^6 to 2×10^6 cpm.
(§2) Peptide inhibitors were typically preincubated with the ribosomes prior to addition to the other reactants. Antibiotic inhibitors such as chloramphenicol were added to reaction mixes with the ribosomes but without the preincubation step. […] Peptidyl transferase reaction mixes were incubated on ice for 1 h, and were terminated by addition of 50 μl of 0.3M sodium acetate saturated with magnesium sulfate followed by 1 ml of ethyl acetate. The ethyl acetate phase was counted for radioactivity. All peptidyl transferase assays were performed in duplicate or triplicate, and the replicates varied by less than 5%. In separate experiments, the inhibitory activity of a single peptide preparation on a single ribosome preparation varied by as much as 10%.
The 50S subunit contains the target for the 5-mer peptide. […]

Test [2] has as its system peptidyl transferase. The test can be described thus: Fragment reaction peptidyl transferase assay with 70S ribosomes. The note with it: preincubation of inhibitor with ribosomes prior to addition to other reactants. In kind it is biochemical, B. subtilis BR151. On the procedure: as §1, §2

“4-mer: 4-mer comparison peptide (SEQ ID NO: 5), sequence not printed in the text (MVKT)”: the “effect on the peptidyl transferase activity of the 50S subunits” value in test [1] is “little effect”.
As to `O=C(N[C@H](CO)[C@H](O)c1ccc([N+](=O)[O-])cc1)C(Cl)Cl` [chloramphenicol], the “effect of preincubation with ribosomes on inhibitory effect on peptidyl transferase” value in test [2] is on record as “failed to increase”.
